In one series the test system is SREBP-2. Kind of series: Western blot of SREBP-2 activation in HepG2 cells. In kind it is cell-based, human.
A further series concerns HepG2 cells. Description: Cholesterol levels in microsomal fractions by HPLC after cholesterol oxidase. To be noted: 0-25 μM. The class given is cell-based, human.
The next series concerns the target T1, PPARγ (Homo sapiens, UniProt P37231).
T1 construct: THP-1 monocytes were differentiated to macrophages by adding 100 nM of phorbol 12-myristate 13-acetate (PMA); endogenous in cells; host or cells: THP-1 monocyte-derived macrophages (human, ATCC)
T1 sequence (P37231 1-505): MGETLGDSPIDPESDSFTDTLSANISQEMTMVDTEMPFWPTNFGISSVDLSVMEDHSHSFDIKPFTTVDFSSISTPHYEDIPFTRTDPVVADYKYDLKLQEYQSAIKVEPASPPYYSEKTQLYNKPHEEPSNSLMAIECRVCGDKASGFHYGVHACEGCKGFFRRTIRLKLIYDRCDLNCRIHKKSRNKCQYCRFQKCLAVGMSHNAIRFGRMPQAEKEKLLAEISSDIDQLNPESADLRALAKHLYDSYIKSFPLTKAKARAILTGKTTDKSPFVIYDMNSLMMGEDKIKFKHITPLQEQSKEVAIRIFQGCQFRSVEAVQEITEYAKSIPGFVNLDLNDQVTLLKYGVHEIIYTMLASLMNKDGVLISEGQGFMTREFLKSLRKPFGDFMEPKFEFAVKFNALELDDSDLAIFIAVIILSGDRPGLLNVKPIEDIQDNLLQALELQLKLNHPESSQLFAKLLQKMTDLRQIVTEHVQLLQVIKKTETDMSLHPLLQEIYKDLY
Description: Western blot of nuclear PPARγ levels in THP-1 macrophages. In kind it is cell-based. To be noted: for nuclear PPARγ protein levels: THP-1 macrophages, 4 hrs. The protocol: FIGS. 21A and 21B. Effects of 25HC3S and 25HC on PPARγ protein levels in THP-1 macrophages. A, THP-1 macrophages were treated with 25HC3S (top panel) or 25HC (middle panel) at different concentration as indicated for 4 hrs. The nuclear PPARγ levels were analyzed by Western blot. […] Expression levels were normalized to Lamin as shown in the bottom panels. The data represent one typical result out of three experiments.
Human THP-1 monocytes and H441 cells were purchased from the American Type Culture Collection (Manassas, Va.) and maintained according to the supplier's protocols. THP-1 monocytes were differentiated to macrophages by adding 100 nM of phorbol 12-myristate 13-acetate (PMA). When cells reached 90% confluence, oxysterols in DMSO or in ethanol (the final concentration in media was <0.1%) were added as indicated. The cells were harvested at the times as indicated. Nuclear and cytosolic fractions were isolated using NE-PER®, Nuclear and Cytoplasmic Extraction Reagents (Pierce, Rockford, Ill. Western blot analysis of nuclear PPAR and intracellular I B levels
Fifty μg of total cell lysates or nuclear protein extracts, otherwise as indicated, were separated on 10% SDS-PAGE gels and transferred onto a polyvinylidene difluoride membrane as described previously. Membranes were blocked in TBS containing 5% of nonfat dried milk for 1 hr. The specific proteins were determined by incubation with specific antibodies against human PPAR or IκB overnight at 4° C. with shaking. After washing, the membrane was incubated in a 1:3,000 dilution of a secondary antibody (goat anti-rabbit or anti-mouse IgG-HP conjugate; Bio-Rad, Hercules, Calif.) at room temperature for 1 hr in the washing buffer (Tris buffered solution containing 0.5% Tween 20). The protein bands were visualized using Western Lightening Chemiluminescence Reagent (Perkin-Elmer, Waltham, Mass.). The expression levels were normalized to Lamin.
In general terms: A western blot detects proteins with antibodies after separation by electrophoresis.

A further series deals with NFκB. Kind of series: Western blot of nuclear NFκB levels in THP-1 macrophages. The class given is cell-based, human.
The next series relates to TNFα and IL-1β mRNA. Description: LPS-induced TNFα, IL-1β and NFκB mRNA by real-time RT-PCR in THP-1 macrophages. The settings on record: for LPS-induced IL-1β mRNA levels / LPS-induced TNFα mRNA levels: 25 hours; for LPS-induced IL-1β mRNA levels: FIG. 28A; for LPS-induced TNFα mRNA levels: FIG. 28B. In kind it is cell-based, human. On the procedure:
FIGS. 28A and B. Addition of 25HC3S suppresses LPS-induced IL-1β (A) and TNFα (B) expression in macrophages. To study the effect of 25HC3S on LPS-induced TNFα and IL-1β expression and release, macrophages were treated with 1 μg/ml of LPS and different concentrations of 25HC3S and 25HC as indicated for 25 hours; mRNA levels of TNFα and IL-1β were determined by real time RT-PCR. The results represent mean SD. […] Both 25HC3S and 25HC repressed LPS-induced TNFα mRNA levels as shown in B.
Total RNA was isolated from THP-1 derived macrophages following treatments for 6 hrs otherwise as indicated using SV Total RNA Isolation Kit (Promega, Wisconsin, Wis.), which includes DNase treatment. Two microgram of total RNA was used for first-strand cDNA synthesis as recommended by manufacturer (Invitrogen, Carlsbad, Calif.). Real-time RT-PCR was performed using SYBR Green as indicator on ABI 7500 Fast Real-Time PCR System (Applied Biosystems, Foster City, Calif.). The final reaction mixture contained 10 ng of cDNA, 100 nM of each primer, 10 μl of 2×SYBR® Green PCR Master Mix (Applied Biosystems, Foster City, Calif.), and RNase-free water to complete the reaction mixture volume to 20 μl. All reactions were performed in triplicate. PCR was carried out for 40 cycles of 95° C. for 15 s and 60° C. for 1 min. The fluorescence was read during the reaction, allowing a continuous monitoring of the amount of PCR product. The data was normalized to internal control GAPDH.
pSilencer2.1-U6 neo siRNA expression vector and negative control for RNAi were purchased from Ambion, Inc. (Austin, Tex.). Three human PPARγ oligonucleotide sequences, […] (siRNA1, SEQ ID NO: 13), […] (siRNA2, SEQ ID NO: 14), and […] (siRNA3, SEQ ID NO: 15), were selected as specific siRNAs to target human PPARγ. Synthetic sense and antisense oligonucleotides were annealed by incubated at 90° C. for 3 min and then at 37° C. for 1 hr. The double stranded oligonucleotides were cloned into the BamH I-Hind III sites of the pSilencer2.1-U6 neo vector according manufacturer's protocol. The control RNA interference (RNAi) sequence was a randomly scrambled and was not found in the mouse, human, or rat genome databases. All of the constructs were confirmed by sequencing. THP-1 macrophages were transfected with a PPARγ siRNA or control RNAi using FugeneHD reagent according to the manufacturer's instructions (Roche Applied Science, Indianapolis, Ind.). After incubation for 4 hrs, the medium was changed with normal medium and compounds were added at appropriate concentrations as indicated. Cells were harvested after 48 hrs following the addition, and PPARγ protein levels were determined using western blot and mRNA levels of inflammatory response factors were measured by real time RT-PCR analysis.
On the technique in general: In qPCR the cycle at which signal appears reflects the starting amount.

Description for SREBP-2: Western blot analysis of SREBPs activation following 25HC3S or 25HC treatment in HepG2 cells. Total proteins were extracted from HepG2 cells treated with 25HC in ethanol (0.1%) (FIGS. 18A and 18C) or 25HC3S in DMSO (0.1%) (FIGS. 18B and 18D), cultured in the media in absence (FIGS. 18A and 18B) or presence (FIGS. 18C and 18D) of mevinolin (50 mM) and mevalonate (0.5 mM). SREBP-1 and SREBP-2 protein levels in the cells were determined by Western blot analysis. The extracted protein (100 μg) was loaded onto each lane for each condition as indicated. The data represent a typical result from one of three independent experiments.
Microsomal proteins (80 μg) were separated on a 7.5% SDS-polyacrylamide denaturing gel according to the method of Laemmli (14). Following SDS-PAGE (Hoefer Vertical Slab Gel Unit; Heofer, San Francisco, Calif.), proteins were electrophoretically transferred overnight (4° C.) to Immobilon-P membranes using a Hoefer Trans Blot Electrophoretic Transfer cell. The membranes were then blocked for 90 minutes (25° C.) in blocking buffer (PBS, pH 7.4, 0.1% Tween, 5% non-fat dry milk). Proteins were then incubated for 90 minutes (25° C.) or overnight (4° C.) with a rabbit polyclonal IgG (1:2500-1:20,000) against human SREBP-1, SREBP-2, or HMG CoA reductase. […] Protein bands were detected using the Amersham ECL plus Kit.

For the compound `C[C@H](CCCC(C)(C)O)[C@H]1CC[C@H]2[C@@H]3CC=C4C[C@@H](OS(=O)(=O)O)CC[C@]4(C)[C@H]3CC[C@]12C` [25HC3S, 5-cholesten-3β, 25-diol 3-sulphate], in the series with SREBP-2, the “mature form of SREBP-2” value was “only slightly decreased”. The entries for the “cholesterol levels in the microsomal fraction” value in the series with HepG2 cells and in the series with HepG2 cells (listed as nuclear oxysterol) were “significantly decreased” and “significant decrease”, respectively. Moreover, on PPARγ, the “nuclear PPARγ protein levels” value was “substantially increased”. Further, the “nuclear PPARγ levels in the presence of the antagonist T0070907” value at PPARγ (preincubated with 1 μM of T0070907 for 2 hrs) is reported as “failed to increase the nuclear PPARγ levels to its maxima”. Besides, the “nuclear NFκB levels” value in the series on NFκB (in the absence of TNFα, 24 hrs) is on record as “decreased”; in the series with NFκB (in the presence of TNFα), “failed to decrease”. For the same compound, the “LPS-induced IL-1β mRNA levels” value in the series on TNFα and IL-1β mRNA (1 μg/ml LPS) is recorded as “significantly suppressed”. The “LPS-induced TNFα mRNA levels” value in the series on TNFα and IL-1β mRNA (1 μg/ml LPS) was “repressed”. In addition, the “LPS-induced TNFα, IL-1β and NFκB expression” value in the series on TNFα and IL-1β mRNA (12 μM, 48 hrs, control macrophages) is “significantly suppressed”. For the same compound, in the series on TNFα and IL-1β mRNA (PPARγ antagonist T0070907), the “suppression of IL-1 and TNFα expression in the presence of T0070907” value is reported as “significantly be blunted”. Besides, in the series on TNFα and IL-1β mRNA (PPARγ knock down macrophages), the “LPS-induced TNFα, IL-1β and NFκB expression in siRNA-expressed cells” value is “failed in suppressing”. For the same compound, the “suppression of LPS-induced IL-1β mRNA levels” value in the series with TNFα and IL-1β mRNA (macrophages, 1 μg/ml LPS) is recorded as 2 fold.
With `C[C@H](CCCC(C)(C)O)[C@H]1CC[C@H]2[C@@H]3CC=C4C[C@@H](O)CC[C@]4(C)[C@H]3CC[C@]12C` [25HC, 25-hydroxycholesterol, reference compound], the “mature form of SREBP-2” value in the series with SREBP-2 is recorded as “only slightly decreased”. Besides, the “cholesterol levels in the microsomal fraction” value in the series with HepG2 cells was “significantly decreased”. Further, the “nuclear PPARγ protein levels” value on PPARγ is “decreased”. Also, the “rosiglitazone-increased nuclear PPARγ levels” value on PPARγ (preincubated with 1 μM of rosiglitazone for 2 hrs, 25HC for 4 hrs) is “significantly inhibited”. Besides, the “nuclear NFκB levels” value in the series with NFκB (in the absence of TNFα, 24 hrs) is recorded as “increased”. Besides, the “nuclear NFκB levels” value in the series on NFκB (in the presence of TNFα) is “significantly increased”. Further, in the series with TNFα and IL-1β mRNA (1 μg/ml LPS), the “LPS-induced IL-1β mRNA levels” value was “significantly increased” and the “LPS-induced TNFα mRNA levels” value is “repressed”. Moreover, in the series with TNFα and IL-1β mRNA (macrophages, 1 μg/ml LPS), the “increase of LPS-induced IL-1β mRNA levels” value is 2 fold.

These data come from patent US11384115B2, “Nuclear sulfated oxysterol, potent regulator of lipid homeostasis, for therapy of hypercholesterolemia, hypertriglycerides, fatty liver diseases, and atherosclerosis” (Virginia Commonwealth University, priority 2004, dated 2022).
